In patent US20140066385A1, “METHOD FOR TREATING CANCER BY COMBINED USE OF DRUGS” (Astellas Pharma Inc., priority 2011, published 2014):

Columns and labels:
[1] = test system: human non-small cell lung cancer (Calu-6); test: Example 4: administration timing of FK330 with paclitaxel in Calu-6 tumor-bearing mice; format: in vivo, nude mice; conditions: Day 55; for tumor volume at the end of the study: mean±SEM
Protocol: Preparation of the test substances and conditioning of the cells were carried out in the same manner as in Example 2.
(§1) Five-week old male nude mice (CAnN Cg-Foxn1nu/CrlCrlj(nu/nu)) were purchased from Charles River Laboratories Japan, Inc. (Japan, Kanagawa). The animals were raised under specific pathogen-free (SPF) conditions throughout the test period by feeding standard feedstuff and drinking water. The cultured cells were subcutaneously inoculated into the dorsal region of the nude mice at a concentration of 3×10^6 cells/0.1 mL/mouse. Nude mice which had the tumor volumes (major axis×[minor axis]^2×0.52) ranging from 142.1 mm^3 to 359.1 mm^3 were assigned by using SAS to minimize the fluctuation in the tumor volume between the groups and within the group.
The first day of administration was designated as Day 0, and observation was made until Day 55. The respective groups (n=5 or 6) were treated as follows. FK330 was orally gavaged in an amount of 5 mL/kg, and paclitaxel was administered intravenously through the tail vein in an amount of 10 mL/kg. Paclitaxel was continuously administered from Day 0 to Day 5, was subsequently withdrawn for 22 days, and then was continuously administered for 5 days from Day 28 to Day 32.
Paclitaxel single administration group: Paclitaxel 10 mg/kg/day (from Day 0 to Day 5, and from Day 28 to Day 32)
Concomitant administration, FK330 100 mg/kg bid (200 mg/kg/day)+paclitaxel 10 mg/kg/day (from Day 0 to Day 5, and from Day 28 to Day 32)
Sequential administration, FK330 100 mg/kg bid (200 mg/kg/day)+paclitaxel 10 mg/kg/day (from Day 0 to Day 5, and from Day 28 to Day 32)
Continuous administration, FK330 100 mg/kg bid (200 mg/kg/day)+paclitaxel 10 mg/kg/day (from Day 0 to Day 5, and from Day 28 to Day 32)
FK330 was orally gavaged (5 mL/kg) twice a day at an interval of 6 to 8 hours. In the Concomitant administration, FK330 was administered on the days of administration of paclitaxel (from Day 0 to Day 5, and from Day 28 to Day 32); and in the […] administration, FK330 was administered on the withdrawal days after the days of administration of paclitaxel (from Day 6 to Day 27, and from Day 33 to Day 55), while the continuous administration was carried out for all days from the day of experiment initiation to the day of experiment completion. Paclitaxel was administered by intravenous bolus injection (10 mL/kg) through the tail vein 2 to 4 hours after the administration of FK330.
Every 3 to 4 days, the body weight and the tumor diameters, determined by using a digital caliper, were measured. The tumor volume was calculated from the calculation formula for ellipsoid volume of (major axis×[minor axis]^2×0.52).

[2] = test system: human gastric cancer (MKN-28); test: Example 5: FK330 with paclitaxel in MKN-28 tumor-bearing mice; format: in vivo, nude mice; conditions: for tumor volume on the last day of experiment: MKN-28, Day 84, mean±SEM
Protocol: Preparation of the test substances was carried out in the same manner as in Example 2.
Human gastric cancer-derived NCI-N87 (CRL-5822) was obtained from American Type Culture Collection (VA, USA), MKN-28 (JCRB0253) was obtained from Health Science Research Resources Bank (HSRRB), and AZ-521 (RCB2087) was obtained from Riken BRC. NCI-N87 and MKN-28 cells were cultured under the conditions of 37° C. and 5% CO2 by using RPMI1640 medium containing 10% heat-inactivated fetal bovine serum (FBS), and AZ-521 cells were cultured under the conditions of 37° C. and 5% CO2 by using DMEM medium containing 10% heat-inactivated FBS. The cells were harvested with trypsin and were suspended in PBS at 6×10^7 cells/mL, and the suspension was mixed with an equal amount of Matrigel (trade name) Basement Membrane Matrix (manufactured by Becton Dickinson Co., Bedford, Mass., USA).
as §1, with “Nude mice which had the tumor volumes (major axis×[minor axis]^2×0.52) ranging from 142.1 mm^3 to 359.1 mm^3 were assigned by using SAS to minimize the fluctuation in the tumor volume between the groups and within the group.” left out
Every 2 to 4 days, the body weight and the tumor diameters, determined by using a digital caliper, were measured. The tumor volume was calculated from the calculation formula for ellipsoid volume of (major axis×[minor axis]^2×0.52).
The results are expressed as the mean value (Mean)±standard error (SEM). Using the actual measured values of the tumor volume at each measurement time point, an unpaired statistical test (Student's t-test) of the difference between two groups was carried out between a single administration group and a combined use group. […]

Row | SMILES | tumor volume reduction ratio compared with the paclitaxel-only group ([1]; concomitant administration of FK330 100 mg/kg bid + paclitaxel) | tumor volume at the end of the study ([1]; concomitant administration of paclitaxel and FK330 100 mg/kg bid (FK330 on paclitaxel days only)) | tumor volume at the end of the study ([1]; continuous administration of FK330 100 mg/kg bid (all days) + paclitaxel) | tumor volume reduction ratio compared with the paclitaxel-only group ([1]; continuous administration of FK330 100 mg/kg bid + paclitaxel) | tumor volume at the end of the study ([1]; sequential administration of FK330 100 mg/kg bid (on paclitaxel withdrawal days) + paclitaxel) | tumor volume reduction ratio compared with the paclitaxel-only group ([1]; sequential administration of FK330 100 mg/kg bid + paclitaxel) | tumor volume on the last day of experiment ([2]; combined use group paclitaxel + FK330 100 mg/kg bid) | tumor volume decrease compared with the paclitaxel-only group ([2]; MKN-28, last day, FK330 100 mg/kg bid + paclitaxel, P=0.08) | tumor volume at the end of the study ([1]; paclitaxel-only group, 10 mg/kg/day i.v. Day 0-5 and Day 28-32) | tumor volume on the last day of experiment ([2]; paclitaxel-only group 10 mg/kg/day i.v., three cycles)
1 | O=C(/C=C/c1ccc(Cl)cc1)N[C@@H](Cc1ccccn1)C(=O)NCC(=O)N1CCC(Oc2cc(C(F)(F)F)ncn2)CC1 [FK330, N^2-[(2E)-3-(4-chlorophenyl)-2-propenoyl]-N-[2-oxo-2-(4-{[6-(trifluoromethyl)pyrimidin-4-yl]oxy}piperidin-1-yl)ethyl]-3-pyridin-2-yl-L-alaninamide] | 54.5% | 559.8±161.8 mm^3 | 168.5±66.0 mm^3 | 86.3% | 1150.9±264.9 mm^3 | 6.4% | 164.8±18.5 mm^3 | 63.7% | – | –
2 | CC(=O)O[C@H]1C(=O)[C@@]2(C)[C@H]([C@H](OC(=O)c3ccccc3)[C@]3(O)C[C@H](OC(=O)[C@H](O)[C@@H](NC(=O)c4ccccc4)c4ccccc4)C(C)=C1C3(C)C)[C@]1(OC(C)=O)CO[C@@H]1C[C@@H]2O [paclitaxel, reference compound] | – | – | – | – | – | – | – | – | 1229.2±289.6 mm^3 | 454.1±147.5 mm^3
